Data taken from ChEMBL document CHEMBL3600356, “Optimization of permethyl ningalin B analogs as P-glycoprotein inhibitors” (Bioorg Med Chem, 2015).
Converted amounts (≈) assume the structure as drawn.

How the values were obtained:
[1] = Solubility of the compound in phosphate buffer at pH 7.4 by capillary electrophoresis system; type: physicochemical
[2] = Cytotoxicity against human MDA435/LCC6 cells assessed as cell survival at 1 uM after 3 days by MTS/PMS assay; type: cell-based; details: mda-435/lcc6, 72 h
[3] = Cytotoxicity against human MDA435/LCC6MDR cells assessed as cell survival at 1 uM after 3 days by MTS/PMS assay; type: ADME, cell-based; details: 72 h
Homo sapiens = species: Homo sapiens; assay: Modulation of p-glycoprotein in human MDA435/LCC6MDR cells assessed as ratio of IC50 for paclitaxel in absence of drug to IC50 for paclitaxel in presence of 1 uM of drug after 5 days by MTS assay; type: cell-based

Row | Compound | solubility [1] | Activity [2] | Activity [3] | Ratio IC50 (Homo sapiens)
1 | COc1ccc(C2=C(c3ccc(OC)c(OC)c3)C(=O)N(C(=O)c3ccc(OCc4ccccc4)c(OC)c3)C2=O)cc1OC | 405 ng/mL (≈ 0.664 µM) | Non-toxic | Non-toxic | –
2 | COc1ccc(C2=C(c3ccc(OC)c(OC)c3)C(=O)N(C(=O)Nc3ccc4c(c3)C(=O)OC4)C2=O)cc1OC | – | Non-toxic | Non-toxic | 1.1
3 | COc1ccc(C2=C(c3ccc(OC)c(OC)c3)C(=O)N(C(=O)N3CCN(CC(=O)c4ccc(OCc5ccccc5)c(OC)c4)CC3)C2=O)cc1OC | – | Non-toxic | Non-toxic | 5.4
4 | COc1ccc(C2=C(c3ccc(OC)c(OC)c3)C(=O)N(CC(=O)c3cc(Br)c(OCc4ccccc4)cc3OCCO)C2=O)cc1OC | – | Non-toxic | Non-toxic | 21.4
5 | COc1ccc(C2=C(c3ccc(OC)c(OC)c3)C(=O)N(C(=O)N3CCN(CC(=O)c4ccc(S(C)(=O)=O)cc4)CC3)C2=O)cc1OC | – | Non-toxic | Non-toxic | 1
6 | CCCCC1OC(=O)c2cc(NC(=O)N3C(=O)C(c4ccc(OC)c(OC)c4)=C(c4ccc(OC)c(OC)c4)C3=O)ccc21 (stereo not drawn) | – | Non-toxic | Non-toxic | 2.4
